Measured values published in patent US11345712B2, “Protein-targeting compounds and pharmaceutical compositions thereof, and their therapeutic applications” (BioTheryX, Inc., priority 2019, dated 2022).

tested on: MOLM-13 cells; experiment: MOLM-13 cell viability assay (CellTiter-Glo); format: cell-based; details: 3 days, concentration of 1 μM
Outline: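 Luminescent ATP read-out (CellTiter-Glo, 10 min with shaking) after 3-day compound or DMSO exposure at 37° C, 5% CO2. Cells plated at 2,500/well in RPMI 1640 plus 10% FBS.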

Row | SMILES | Antiproliferative Activity (inhibition, MOLM-13 cell viability)
1 | CC(C)(C)c1ccc(C(=O)C(=O)NCc2cc3c(s2)C(=O)N(C2CCC(=O)NC2=O)C3)cc1 (stereo not shown) [Compound I-45, 2-(4-(tert-butyl)phenyl)-N-((5-(2,6-dioxopiperidin-3-yl)-6-oxo-5,6-dihydro-4H-thieno[2,3-c]pyrrol-2-yl)methyl)-2-oxoacetamide] | B (a value less than 80% but no less than 50%)

same assay, conditions: Homo sapiens, MOLM-13, 72 h, 3 days, concentration of 1 μM, read-out: Antiproliferative Activity (inhibition, MOLM-13 cell viability)

Row | SMILES | cytotoxicity at 1 µM [%]
2 | O=C1CCC(N2Cc3cc(CNC(=O)C(F)(F)c4ccc(C5(C(F)(F)F)CC5)cc4)ccc3C2=O)C(=O)N1 (stereo not shown) [II-164, N-((2-(2,6-dioxopiperidin-3-yl)-1-oxoisoindolin-5-yl)methyl)-2,2-difluoro-2-(4-(1-(trifluoromethyl)cyclopropyl)phenyl)acetamide] | > 80
3 | CC(C)(C)c1ccc(C(=O)C(=O)NCc2ccc3c(c2)CN([C@H]2CCCC(=O)NC2=O)C3=O)cc1 [Compound I-10, (S)-2-(4-(tert-butyl)phenyl)-N-((2-(2,7-dioxoazepan-3-yl)-1-oxoisoindolin-5-yl)methyl)-2-oxoacetamide] | > 80
4 | O=C1CCC(N2Cc3c(CNC(=O)C(=O)c4cccc(F)c4)cccc3C2=O)C(=O)N1 (stereo not shown) [Compound I-92, 2-(3-fluorophenyl)-N-((2-(2,6-dioxopiperidin-3-yl)-1-oxoisoindolin-4-yl)methyl)-2-oxoacetamide] | 50 to 80
5 | Cc1ccc(C(=O)C(=O)NCc2scc3c2CN(C2CCC(=O)NC2=O)C3=O)cc1 (stereo not shown) [Compound I-17, 2-(4-methylphenyl)-N-((5-(2,6-dioxopiperidin-3-yl)-4-oxo-5,6-dihydro-4H-thieno[3,4-c]pyrrol-1-yl)methyl)-2-oxoacetamide] | < 25
6 | O=C1CCC(N2Cc3c(CNC(=O)C(=O)c4ccccc4F)cccc3C2=O)C(=O)N1 (stereo not shown) [Compound I-82, 2-(2-fluorophenyl)-N-((2-(2,6-dioxopiperidin-3-yl)-1-oxoisoindolin-4-yl)methyl)-2-oxoacetamide] | 25 to 50
7 | Cc1cc(NC(=O)NCc2cc3c(s2)C(=O)N(C2CCC(=O)NC2=O)C3)ccc1N(C)C (stereo not shown) [II-59, 1-(4-(dimethylamino)-3-methylphenyl)-3-((5-(2,6-dioxopiperidin-3-yl)-6-oxo-5,6-dihydro-4H-thieno[2,3-c]pyrrol-2-yl)methyl)urea] | < 25
8 | Cc1cc(NC(=O)NCc2cc3c(s2)C(=O)N(C2CCC(=O)NC2=O)C3)cc(N(C)C)c1 (stereo not shown) [II-49, 1-(3-(dimethylamino)-5-methylphenyl)-3-((5-(2,6-dioxopiperidin-3-yl)-6-oxo-5,6-dihydro-4H-thieno[2,3-c]pyrrol-2-yl)methyl)urea] | > 80
9 | O=C1CCC(N2Cc3cc(CNC(=O)C(=O)c4ccccc4F)ccc3C2=O)C(=O)N1 (stereo not shown) [Compound I-86, N-((2-(2,6-dioxopiperidin-3-yl)-1-oxoisoindolin-5-yl)methyl)-2-oxo-2-(2-fluorophenyl)acetamide] | 50 to 80
10 | O=C1CCC(N2Cc3c(csc3CNC(=O)C(=O)c3ccc(F)cc3)C2=O)C(=O)N1 (stereo not shown) [Compound I-22, 2-(4-fluorophenyl)-N-((5-(2,6-dioxopiperidin-3-yl)-4-oxo-5,6-dihydro-4H-thieno[3,4-c]pyrrol-1-yl)methyl)-2-oxoacetamide] | < 25
11 | CC(C)(C)c1ccc(C2(C(=O)NCc3scc4c3CN(C3CCC(=O)NC3=O)C4=O)CC2)cc1 (stereo not shown) [II-127, 1-(4-(tert-butyl)phenyl)-N-((5-(2,6-dioxopiperidin-3-yl)-4-oxo-5,6-dihydro-4H-thieno[3,4-c]pyrrol-1-yl)methyl)cyclopropane-1-carboxamide] | 25 to 50
12 | Cc1cc(NC(=O)NCc2cc3c(s2)C(=O)N(C2CCC(=O)NC2=O)C3)ccc1N1CCCC1 (stereo not shown) [II-27, 1-((5-(2,6-dioxopiperidin-3-yl)-6-oxo-5,6-dihydro-4H-thieno[2,3-c]pyrrol-2-yl)methyl)-3-(3-methyl-4-(pyrrolidin-1-yl)phenyl)urea] | < 25
13 | CC(C)[C@@H](N)C(=O)OCN1C(=O)CCC(N2Cc3c(CNC(=O)C(=O)c4ccc(C(C)(C)C)cc4)cccc3C2=O)C1=O (stereo partly drawn) [Compound I-49, (2R)-(3-(4-((2-(4-(tert-butyl)phenyl)-2-oxoacetamido)methyl)-1-oxoisoindolin-2-yl)-2,6-dioxopiperidin-1-yl)methyl 2-amino-3-methylbutanoate] | 50 to 80
14 | Cc1ccc(NCCCNCc2scc3c2CN(C2CCC(=O)NC2=O)C3=O)cc1Cl (stereo not shown) [II-23, 3-(1-(((3-((3-chloro-4-methylphenyl)amino)propyl)amino)methyl)-4-oxo-4H-thieno[3,4-c]pyrrol-5(6H)-yl)piperidine-2,6-dione] | < 25
15 | Cc1ccc(NC(=O)NCc2cc3c(s2)C(=O)N(C2CCC(=O)NC2=O)C3)cc1O (stereo not shown) [II-46, 1-((5-(2,6-dioxopiperidin-3-yl)-6-oxo-5,6-dihydro-4H-thieno[2,3-c]pyrrol-2-yl)methyl)-3-(3-hydroxy-4-methylphenyl)urea] | 25 to 50
16 | CN(Cc1ccc2c(c1)CN(C1CCC(=O)NC1=O)C2=O)C(=O)C(=O)c1ccc(C(C)(C)C)cc1 (stereo not shown) [Compound I-34, 2-(4-(tert-butyl)phenyl)-N-((2-(2,6-dioxopiperidin-3-yl)-1-oxoisoindolin-5-yl)methyl)-N-methyl-2-oxoacetamide] | < 25
17 | O=C1CCC(N2Cc3cc(CNC(=O)Nc4c(Cl)cccc4Cl)sc3C2=O)C(=O)N1 (stereo not shown) [II-42, 1-(2,6-dichlorophenyl)-3-((5-(2,6-dioxopiperidin-3-yl)-6-oxo-5,6-dihydro-4H-thieno[2,3-c]pyrrol-2-yl)methyl)urea] | < 25
18 | Cc1ccc(C(F)(F)C(=O)NCc2scc3c2CN([C@H]2CCCC(=O)NC2=O)C3=O)cc1Cl [II-29, (S)-2-(3-chloro-4-methylphenyl)-N-((5-(2,7-dioxoazepan-3-yl)-4-oxo-5,6-dihydro-4H-thieno[3,4-c]pyrrol-1-yl)methyl)-2,2-difluoroacetamide] | < 25
19 | O=C1CCC(N2Cc3cc(CCNC(=O)C(=O)c4ccc(C5(C(F)(F)F)CC5)cc4)ccc3C2=O)C(=O)N1 (stereo not shown) [Compound I-52, N-(2-(2-(2,6-Dioxopiperidin-3-yl)-1-oxoisoindolin-5-yl)ethyl)-2-oxo-2-(4-(1-(trifluoromethyl)cyclopropyl)phenyl)acetamide] | 25 to 50
20 | O=C1CCC(N2Cc3c(csc3CNC(=O)C(=O)c3ccc(-c4ccccc4)cc3)C2=O)C(=O)N1 (stereo not shown) [Compound I-21, 2-([1,1′-biphenyl]-4-yl)-N-((5-(2,6-dioxopiperidin-3-yl)-4-oxo-5,6-dihydro-4H-thieno[3,4-c]pyrrol-1-yl)methyl)-2-oxoacetamide] | 25 to 50
21 | Cc1ccc(C(=O)C(=O)NCc2ccc3c(c2)CN(C2CCC(=O)NC2=O)C3=O)cc1Cl (stereo not shown) [Compound I-53, 2-(3-chloro-4-methylphenyl)-N-((2-(2,6-dioxopiperidin-3-yl)-1-oxoisoindolin-5-yl)methyl)-2-oxoacetamide] | > 80
22 | CC(C)(C)c1ccc(C(C(=O)NCc2scc3c2CN(C2CCC(=O)NC2=O)C3=O)C(F)(F)F)cc1 (stereo not shown) [II-147, 2-(4-(tert-butyl)phenyl)-N-((5-(2,6-dioxopiperidin-3-yl)-4-oxo-5,6-dihydro-4H-thieno[3,4-c]pyrrol-1-yl)methyl)-3,3,3-trifluoropropanamide] | < 25
23 | CN(C)c1cc(NC(=O)NCc2cc3c(s2)C(=O)N(C2CCC(=O)NC2=O)C3)ccc1C(F)(F)F (stereo not shown) [II-55, 1-(3-(dimethylamino)-4-(trifluoromethyl)phenyl)-3-((5-(2,6-dioxopiperidin-3-yl)-6-oxo-5,6-dihydro-4H-thieno[2,3-c]pyrrol-2-yl)methyl)urea] | > 80
24 | CC(C)c1ccc(CC(=O)NCc2scc3c2CN(C2CCC(=O)NC2=O)C3=O)cc1 (stereo not shown) [II-74, N-((5-(2,6-dioxopiperidin-3-yl)-4-oxo-5,6-dihydro-4H-thieno[3,4-c]pyrrol-1-yl)methyl)-2-(4-isopropylphenyl)acetamide] | < 25
25 | O=C1CCC(N2Cc3c(CNC(=O)C(=O)c4ccc(C5(C(F)(F)F)CC5)cc4)cccc3C2=O)C(=O)N1 (stereo not shown) [Compound I-30, N-((2-(2,6-dioxopiperidin-3-yl)-1-oxoisoindolin-4-yl)methyl)-2-oxo-2-(4-(1-(trifluoromethyl)cyclopropyl)phenyl)acetamide] | > 80
26 | Cc1ccc(NC(=O)NCc2cc3c(s2)C(=O)N(C2CC(=O)NC2=O)C3)cc1Cl (stereo not shown) [II-72, 1-(3-chloro-4-methylphenyl)-3-((5-(2,5-dioxopyrrolidin-3-yl)-6-oxo-5,6-dihydro-4H-thieno[2,3-c]pyrrol-2-yl)methyl)urea] | 25 to 50
27 | CC(C)(C)c1ccc(NC(=O)NCc2scc3c2CN(C2CCC(=O)NC2=O)C3=O)cc1 (stereo not shown) [II-148, 1-(4-(tert-butyl)phenyl)-3-((5-(2,6-dioxopiperidin-3-yl)-4-oxo-5,6-dihydro-4H-thieno[3,4-c]pyrrol-1-yl)methyl)urea] | > 80
28 | O=C1CCC(N2Cc3cc(CNC(=O)C(=O)c4cccc(Cl)c4)ccc3C2=O)C(=O)N1 (stereo not shown) [Compound I-91, 2-(3-chlorophenyl)-N-((2-(2,6-dioxopiperidin-3-yl)-1-oxoisoindolin-5-yl)methyl)-2-oxoacetamide] | > 80
29 | Cc1ccc(NC(=O)NCc2cc3c(s2)C(=O)N(C2(C)CCC(=O)NC2=O)C3)cc1Cl (stereo not shown) [II-73, 1-(3-chloro-4-methylphenyl)-3-((5-(3-methyl-2,6-dioxopiperidin-3-yl)-6-oxo-5,6-dihydro-4H-thieno[2,3-c]pyrrol-2-yl)methyl)urea] | < 25
30 | COc1ccc(CC(=O)NCc2scc3c2CN(C2CCC(=O)NC2=O)C3=O)cc1C(C)C (stereo not shown) [II-63, N-((5-(2,6-dioxopiperidin-3-yl)-4-oxo-5,6-dihydro-4H-thieno[3,4-c]pyrrol-1-yl)methyl)-2-(3-isopropyl-4-methoxyphenyl)acetamide] | > 80
31 | CC(C)(C)c1cccc(C(=O)C(=O)NCc2scc3c2CN(C2CCC(=O)NC2=O)C3=O)c1 (stereo not shown) [Compound I-19, 2-(3-tert-butylphenyl)-N-((5-(2,6-dioxopiperidin-3-yl)-4-oxo-5,6-dihydro-4H-thieno[3,4-c]pyrrol-1-yl)methyl)-2-oxoacetamide] | > 80
